Values of other authors in patent US4390710A, “Catalyst system for manufacturing p-chlorophenyl-N-methyl carbamate” (PPG Industries, Inc., priority 1981, dated 1983).

Settings: organic herbicides such as isopropyl-N-(3-chlorophenyl) carbamate and isopropyl-N-phenyl carbamate

**Q.** For `CNC(=O)Oc1ccc(Cl)cc1` [p-chlorophenyl-N-methyl carbamate], which “extending the soil life of organic herbicides” value is on record?
**A.** Its value is “capable of extending the soil life of many organic herbicides”.
